This passage reports IC50 results from patent publication US12643910B2, “Substituted pyrazolo[3,4-b]pyridines as ectonucleotide pyrophosphatase/phosphodiesterase 1 (ENPP1) modulators” (SANFORD BURNHAM PREBYS MEDICAL DISCOVERY INSTITUTE, priority 2019, dated 2026).

One test concerns the target T1, human ENPP1 (Homo sapiens, UniProt P22413).
T1 construct: made in house
T1 sequence (P22413 1-925): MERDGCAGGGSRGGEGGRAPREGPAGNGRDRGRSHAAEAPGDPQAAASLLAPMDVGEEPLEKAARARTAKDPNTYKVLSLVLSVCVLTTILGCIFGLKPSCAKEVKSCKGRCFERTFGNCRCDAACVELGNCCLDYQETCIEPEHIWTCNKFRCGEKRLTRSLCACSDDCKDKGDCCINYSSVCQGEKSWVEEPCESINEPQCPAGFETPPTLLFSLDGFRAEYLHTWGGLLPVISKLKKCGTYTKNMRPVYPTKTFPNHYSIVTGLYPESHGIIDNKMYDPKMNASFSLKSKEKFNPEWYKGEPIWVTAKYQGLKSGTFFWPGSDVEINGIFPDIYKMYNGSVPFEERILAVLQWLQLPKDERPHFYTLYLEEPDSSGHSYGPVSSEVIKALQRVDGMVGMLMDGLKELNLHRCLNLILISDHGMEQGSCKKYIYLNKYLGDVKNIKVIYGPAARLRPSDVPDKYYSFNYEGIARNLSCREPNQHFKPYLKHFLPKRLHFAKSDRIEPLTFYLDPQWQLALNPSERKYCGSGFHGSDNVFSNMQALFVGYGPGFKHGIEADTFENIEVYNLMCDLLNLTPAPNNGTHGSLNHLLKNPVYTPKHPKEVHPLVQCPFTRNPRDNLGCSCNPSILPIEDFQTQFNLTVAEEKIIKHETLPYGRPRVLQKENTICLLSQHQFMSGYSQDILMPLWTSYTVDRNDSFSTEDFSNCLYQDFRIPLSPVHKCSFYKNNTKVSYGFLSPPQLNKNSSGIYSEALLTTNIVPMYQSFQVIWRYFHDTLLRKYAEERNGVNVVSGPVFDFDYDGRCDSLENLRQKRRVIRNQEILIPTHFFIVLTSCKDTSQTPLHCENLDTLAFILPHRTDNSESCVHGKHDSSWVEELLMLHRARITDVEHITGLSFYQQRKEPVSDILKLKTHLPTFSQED
Kind of test: ENPP1 assay with ATP substrate (Transcreener AMP2/GMP2 TR-FRET). It counts as biochemical. As to conditions: 1 hour at room temperature. In short, it runs like this: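 5′-AMP from ATP hydrolysis (300 nM ATP stock added; enzyme added as 8.5 μM stock) detected by competitive TR-FRET. Buffer: 50 mM Tris pH 7.5, 1 mM TCEP, 2 mM MgCl2, 0.005% Tween 20, 1% DMSO. Reaction 1 h at room temperature, EDTA stop. IC50 from 2-parameter variable-slope fit.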
(In TR-FRET formats the signal depends on donor and acceptor labels being close together.)

The target in another test is T2, ENPP3 (Homo sapiens, UniProt O14638).
T2 sequence (O14638 1-875): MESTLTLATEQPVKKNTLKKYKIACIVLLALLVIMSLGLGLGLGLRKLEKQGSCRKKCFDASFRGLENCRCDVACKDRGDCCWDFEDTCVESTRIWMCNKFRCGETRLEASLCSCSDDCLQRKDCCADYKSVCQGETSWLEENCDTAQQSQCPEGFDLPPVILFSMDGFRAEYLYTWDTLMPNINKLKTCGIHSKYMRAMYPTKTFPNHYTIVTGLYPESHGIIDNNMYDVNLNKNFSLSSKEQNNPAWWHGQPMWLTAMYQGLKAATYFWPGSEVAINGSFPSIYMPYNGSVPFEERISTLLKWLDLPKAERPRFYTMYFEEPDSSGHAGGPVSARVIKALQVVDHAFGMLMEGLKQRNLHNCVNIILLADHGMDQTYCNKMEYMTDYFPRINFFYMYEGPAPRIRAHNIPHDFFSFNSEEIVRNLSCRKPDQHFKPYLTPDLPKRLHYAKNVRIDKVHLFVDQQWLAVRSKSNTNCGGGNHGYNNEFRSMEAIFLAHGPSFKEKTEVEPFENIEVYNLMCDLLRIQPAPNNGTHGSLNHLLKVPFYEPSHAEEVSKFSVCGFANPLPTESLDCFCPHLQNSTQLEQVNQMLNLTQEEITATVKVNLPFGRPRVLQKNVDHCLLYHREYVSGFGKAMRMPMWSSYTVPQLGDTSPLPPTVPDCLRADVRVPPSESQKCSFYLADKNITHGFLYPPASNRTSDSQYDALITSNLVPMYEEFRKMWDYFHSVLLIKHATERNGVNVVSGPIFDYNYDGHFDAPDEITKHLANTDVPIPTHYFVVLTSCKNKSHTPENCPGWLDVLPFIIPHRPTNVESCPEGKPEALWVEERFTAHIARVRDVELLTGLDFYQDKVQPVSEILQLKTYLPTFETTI
Put plainly: ENPP3 Km ATP assay. Format: biochemical. As to conditions: ATP at Km.

Structures are written as SMILES.

For the compound `NS(=O)(=O)c1ccc(CNc2nc(NCCO)nc3scc(-c4ccccc4)c23)cc1` [Example 1.50, 4-((2-(2-Hydroxyethylamino)-5-phenylthieno[2,3-d]pyrimidin-4-yl)aminomethyl)-benzenesulfonamide], the concentration for half-maximal inhibition (IC50) against human ENPP1 and against ENPP3 was below 0.1 µM in each case.

In the case of `NS(=O)(=O)c1ccc(CNc2nc(NCCCO)nc3scc(-c4ccccc4)c23)cc1` [Example 1.51, 4-((2-(3-Hydroxypropyl)amino-5-phenylthieno[2,3-d]pyrimidin-4-yl)aminomethyl)-benzenesulfonamide], the IC50 on human ENPP1 and against ENPP3 was below 0.1 µM in each case.

With `CCN(CCO)c1nc(NCc2ccc(S(N)(=O)=O)cc2)c2c(-c3ccccc3)csc2n1` [Example 1.52, 4-((2-(N-Ethyl-N-(2-hydroxyethyl)amino)-5-phenylthieno[2,3-d]pyrimidin-4-yl)aminomethyl)-benzenesulfonamide], the IC50 is below 0.1 µM at human ENPP1 and 0.1 to 1 µM against ENPP3.

As for `CCN(c1nc(NCc2ccc(S(N)(=O)=O)cc2)c2c(-c3ccccc3)csc2n1)C(C)(C)CO` [Example 1.53, 4-((2-(N-Ethyl-N-(1-hydroxy-2-methylpropan-2-yl)amino)-5-phenylthieno[2,3-d]pyrimidin-4-yl)aminomethyl)benzenesulfonamide], the IC50 against human ENPP1 and at ENPP3 was 0.1 to 1 µM each time.

As for `COCCNc1nc(NCc2ccc(S(N)(=O)=O)cc2)c2c(-c3ccccc3)csc2n1` [Example 1.54, 4-((2-(2-Methoxyethyl)amino-5-phenylthieno[2,3-d]pyrimidin-4-yl)aminomethyl)-benzenesulfonamide], the concentration for half-maximal inhibition (IC50) at human ENPP1 and against ENPP3 was below 0.1 µM in each case.

Consider `COCCN(C)c1nc(NCc2ccc(S(N)(=O)=O)cc2)c2c(-c3ccccc3)csc2n1` [Example 1.55, 4-((2-(N-Methyl-N-(2-methoxyethyl)amino)-5-phenylthieno[2,3-d]pyrimidin-4-yl)aminomethyl)benzenesulfonamide], for which the half-maximal inhibitory concentration (IC50) is below 0.1 µM against human ENPP1 and 0.1 to 1 µM against ENPP3.

Consider `COCCCNc1nc(NCc2ccc(S(N)(=O)=O)cc2)c2c(-c3ccccc3)csc2n1` [Example 1.56, 4-((2-(3-Methoxypropyl)amino-5-phenylthieno[2,3-d]pyrimidin-4-yl)aminomethyl)-benzenesulfonamide], for which the IC50 against human ENPP1 and against ENPP3 was below 0.1 µM throughout.

Consider `Nc1nc(NCc2ccc(S(N)(=O)=O)cc2)c2c(-c3ccccc3)csc2n1` [Example 1.57, 4-((2-Amino-5-phenylthieno[2,3-d]pyrimidin-4-yl)aminomethyl)benzenesulfonamide], for which the half-inhibitory concentration (IC50) against human ENPP1 is below 0.1 µM; on ENPP3, 0.1 to 1 µM.

With `CN(C)CCN(C)c1nc(NCc2ccc(S(N)(=O)=O)cc2)c2c(-c3ccccc3)csc2n1` [Example 1.58, 4-((2-((N-2-(Dimethylamino)ethyl)-N-methylamino)-5-phenylthieno[2,3-d]pyrimidin-4-yl)aminomethyl)benzenesulfonamide], the IC50 against human ENPP1 and at ENPP3 was below 0.1 µM each time.

Consider `CN(C)CCCNc1nc(NCc2ccc(S(N)(=O)=O)cc2)c2c(-c3ccccc3)csc2n1` [Example 1.59, 4-((2-(3-Dimethylaminopropyl)amino-5-phenylthieno[2,3-d]pyrimidin-4-yl)aminomethyl)-benzenesulfonamide], for which the concentration for half-maximal inhibition (IC50) against human ENPP1 and at ENPP3 was below 0.1 µM each time.

As for `CN(C)CCNc1nc(NCc2ccc(S(N)(=O)=O)cc2)c2c(-c3ccccc3)csc2n1` [Example 1.60, 4-((2-(2-Dimethylamino)ethylamino-5-phenylthieno[2,3-d]pyrimidin-4-yl)aminomethyl)-benzenesulfonamide], the IC50 against human ENPP1 and against ENPP3 was below 0.1 µM each time.

As for `Cc1nc(NCc2ccc(S(N)(=O)=O)cc2)c2c3c(sc2n1)CCCC3` [Example 1.64, 4-((2-Methyl-5,6,7,8-tetrahydro[1]benzothieno[2,3-d]pyrimidin-4-yl)aminomethyl)-benzenesulfonamide], the IC50 against human ENPP1 was above 20 µM; on ENPP3, 1 to 20 µM.

Broadly, the IC50 is the concentration at which inhibition is half-maximal.
